Source: EP0558104B1, “1,5-Benzodiazepine derivatives and their use in medicine” (GLAXO WELLCOME S.p.A., priority 1992, dated 1993)
Read-outs that look alike come from different tables or passages of the source.

Columns and labels:
CCK-A receptors = target: T1, CCK-A receptors (Cavia porcellus, UniProt Q63931); assay: CCK-A antagonist activity, guinea pig isolated ileum longitudinal muscle myenteric plexus preparation; type: cell-based
T1 construct: guinea pig isolated ileum longitudinal muscle myenteric plexus preparation; from tissue; host or cells: guinea pig isolated ileum longitudinal muscle-myenteric plexus
T1 sequence (Q63931 1-430): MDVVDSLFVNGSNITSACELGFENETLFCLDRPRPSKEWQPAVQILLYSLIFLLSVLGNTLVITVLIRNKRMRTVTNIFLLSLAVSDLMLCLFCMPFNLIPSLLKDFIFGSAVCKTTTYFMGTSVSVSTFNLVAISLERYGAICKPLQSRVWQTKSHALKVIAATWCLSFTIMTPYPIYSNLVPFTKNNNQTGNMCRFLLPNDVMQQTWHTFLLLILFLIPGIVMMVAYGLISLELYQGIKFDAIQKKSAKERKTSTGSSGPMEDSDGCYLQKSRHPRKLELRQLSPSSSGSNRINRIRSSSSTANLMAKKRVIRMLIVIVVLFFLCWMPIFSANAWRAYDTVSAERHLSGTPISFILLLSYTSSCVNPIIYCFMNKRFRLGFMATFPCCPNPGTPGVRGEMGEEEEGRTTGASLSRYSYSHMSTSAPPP
Experimental: The preparation and use of guinea-pig isolated ileum longitudinal muscle-myenteric plexus has been described by K-H Buchheit et al in Nauyn-Schmeideberg's Arch. Pharmacol, (1985), 329, p3641 and by V.L. Lucaites et al (1991) in J. Pharmacol. Exp. Ther., 256, 695-703.
The CCK-A antagonist and CCK-B antagonist activites of compounds of the invention were determined using the guinea pig isolated ileum longitudinal muscle myenteric plexus preparation. The compounds were tested using the procedure G Dal Forno et al J. Pharmacol. Exp & Ther. 261 - 1056-1063 1992 and the pKb value for each compound was determined.

CCK-B receptor = CCK-B receptor (Cavia porcellus, UniProt H0VZC5); assay: CCK receptor binding, guinea pig cortex assay; parameters: CCK-B receptor (guinea pig cortex assay); from tissue; host or cells: guinea pig cortex
Experimental: The greater affinity of the compounds of the invention for the CCK-B receptor over the CCK-A receptor has also been established using the CCK receptor binding assays described by G Dal Fornos et al., J. Pharmcol. Exp & Ther. 261, 1056-1063, 1992.
The binding affinity of the compounds of the invention for the CCK-A receptor (Pancreas Assay) and CCK-B receptor (guinea pig cortex assay) was determined using the procedure of G Dal Forno et al J. Pharmacol. Exp & Ther. 261 - 1056-1063. The pKi values determined with respresentative compounds of invention were as follows: […]

mice [1] = assay: Tolerability after oral administration to mice; type: in vivo; details: given orally to mice at doses at which the compound exhibits anxiolytic activity
Text: (§1) The compounds of the invention are essentially non-toxic and therapeutically useful doses.

rats = assay: Tolerability after oral administration to rats; type: in vivo; details: given orally to rats at doses at which the compound exhibits anxiolytic activity
Text: as §1

mice [2] = assay: Anxiolytic activity in mice (black-white box test); type: in vivo
Text: (§2) For example in mice in the black-white box test and in the rat social interaction model.

rat = assay: Anxiolytic activity in rats (rat social interaction model); type: in vivo
Text: as §2

[3] = guinea pig isolated ileum longitudinal muscle myenteric plexus, inhibition of contractile activity of CCK-8, read-out: pKb CCK-A (converted)

CCK-B receptor, sequence (H0VZC5 entry or part of it): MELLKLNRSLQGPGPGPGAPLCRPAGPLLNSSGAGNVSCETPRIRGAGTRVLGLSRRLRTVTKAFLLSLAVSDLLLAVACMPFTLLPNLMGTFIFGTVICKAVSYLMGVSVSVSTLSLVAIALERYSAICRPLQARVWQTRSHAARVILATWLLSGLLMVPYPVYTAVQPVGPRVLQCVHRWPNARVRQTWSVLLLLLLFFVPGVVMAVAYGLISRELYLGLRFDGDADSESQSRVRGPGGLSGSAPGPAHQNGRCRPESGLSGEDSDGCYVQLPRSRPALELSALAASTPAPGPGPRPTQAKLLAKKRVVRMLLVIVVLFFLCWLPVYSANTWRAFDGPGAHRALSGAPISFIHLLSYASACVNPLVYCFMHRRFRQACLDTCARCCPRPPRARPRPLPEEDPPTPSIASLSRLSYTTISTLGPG

`O=C(Nc1ccccc1)NC1C(=O)N(CC23CC4CC(CC(C4)C2)C3)c2ccccc2N(c2ccccc2)C1=O` (centres unmarked) [Example 14, N-[1-(1-Adamantyl)methyl-2,4-dioxo-5-phenyl-2,3,4,5-tetrahydro-1H-1,5-benzodiazepin-3-yl]-N'-phenylurea] gave a Kb (CCK-A receptors) of 158 nM.

`CN(C)c1ccc(NC(=O)NC2C(=O)N(CCC3CCCC3)c3ccccc3N(c3ccccc3F)C2=O)cc1` (centres unmarked) [Example 30, N-[1-(2-cyclopentyl-ethyl)-2,4-dioxo-5-(2-fluorophenyl)-2,3,4,5-tetrahydro-1H-1,5-benzodiazepin-3-yl]-N'-[4-(dimethylamino)phenyl]urea] gave a Ki (CCK-B receptor) of 0.724 nM.

In the case of `O=C(Nc1ccccc1)NC1C(=O)N(CC23CC4CC(CC(C4)C2)C3)c2ccccc2N(c2ccccc2)C1=O` (single isomer, unassigned; (+)) [Example 45, (+)-N-[1-(Adamantanmethyl)-2,4-dioxo-5-phenyl-2,3,4,5-tetrahydro-1H-1,5benzodiazepin-3-yl]-N'-phenylurea], the Kb (CCK-A receptors) is reported as 1260 nM, the untoward effects (mice [1]) is reported as “no untoward effects” and the untoward effects (rats) is reported as “no untoward effects”. The anxiolytic activity (mice [2]) was “exhibits anxiolytic activity” and the anxiolytic activity (rat) was “exhibits anxiolytic activity”.

For `CC(C)(C)C(O)CN1C(=O)C(NC(=O)Nc2ccccc2)C(=O)N(c2ccccc2F)c2ccccc21` (centres unmarked) [Example 7A, N-[1-(3,3-Dimethyl-2-hydroxybut-1-yl)-2,4-dioxo-5-(2-fluorophenyl)-2,3,4,5-tetrahydro-1H-1,5-benzodiazepin-3-yl]-N'-phenylurea], the Ki (CCK-B receptor) was 1.95 nM.

For `CC(C)CCN1C(=O)C(NC(=O)Nc2ccccc2)C(=O)N(c2ccccc2)c2ccccc21` (centres unmarked) [Example 25, N-[2,4-Dioxo-5-phenyl-1-(3-methylbut-1-yl)-2,3,4,5-tetrahydro-1H-1,5-benzodiazepin-3-yl]-N'-phenylurea], the Kb (CCK-A receptors; [3]) was > 1000 nM.

`CC(C)CCN1C(=O)C(NC(=O)Nc2ccccc2)C(=O)N(c2ccccc2)c2cc(Cl)c(Cl)cc21` (centres unmarked) [Example 11, N-[7,8-dichloro-2,4-Dioxo-1-(3-methylbut-1-yl)-5-phenyl-2,3,4,5-tetrahydro-1H-1,5-benzodiazepin-3-yl]-N'-phenylurea] showed a Ki (CCK-B receptor) of 9.77 nM.

For `CCOC(=O)c1cccc(NC(=O)NC2C(=O)N(CC34CC5CC(CC(C5)C3)C4)c3ccccc3N(c3ccccc3)C2=O)c1` (centres unmarked) [Example 41, N-[1-(1-Adamantylmethyl)-2,4-dioxo-5-phenyl-2,3,4,5-tetrahydro-1H-1,5-benzodiazepin-3-yl]-N'-(3-ethoxycarbonylphenyl)urea], the Ki (CCK-B receptor) was 2.95 nM.

For `O=C(Nc1cccc([N+](=O)[O-])c1)NC1C(=O)N(CC23CC4CC(CC(C4)C2)C3)c2ccccc2N(c2ccccc2)C1=O` (centres unmarked) [Example 39, N-[1-(1-Adamantylmethyl)-2,4-dioxo-5-phenyl-2,3,4,5-tetrahydro-1H-1,5-benzodiazepin-3-yl]-N'-(3-nitrophenyl)urea], the Ki (CCK-B receptor) was 1.91 nM.

`CC(C)CCN1C(=O)C(NC(=O)Nc2cccc(N(C)C)c2)C(=O)N(c2ccccc2F)c2ccccc21` (centres unmarked) [Example 4, N-[2,4-dioxo-5-(2-fluorophenyl)-1-(3-methylbut-1-yl)-2,3,4,5-tetrahydro-1H-1,5-benzodiazepin-3-yl]-N'-(3-dimethylamino)phenylurea] showed a Kb (CCK-A receptors; [3]) of 3160 nM and a Ki (CCK-B receptor) of 0.251 nM.

Work on `CC(C)CCN1C(=O)C(NC(=O)Nc2ccccc2)C(=O)N(c2ccccc2)c2cc(Cl)ccc21` (centres unmarked) [Example 9, N-[7-Chloro-2,4-dioxo-1-(3-methylbut-1-yl)-5-phenyl-2,3,4,5-tetrahydro-1H-1,5-benzodiazepin-3-yl]-N'-phenylurea] yielded a Ki (CCK-B receptor) of 4.9 nM.

`CC(C)(C)CCN1C(=O)C(NC(=O)Nc2ccccc2)C(=O)N(c2ccccc2)c2ccccc21` (centres unmarked) [Example 16, N-[1-(3,3-Dimethylbutyl)-2,4-dioxo-5-phenyl-2,3,4,5-tetrahydro-1H-1,5-benzodiazepin-3-yl]-N'-phenylurea] gave a Ki (CCK-B receptor) of 0.676 nM.

For `O=C(Nc1ccccc1)NC1C(=O)N(CC2CC3C=CC2C3)c2ccccc2N(c2ccccc2)C1=O` (centres unmarked) [Example 31, N-[1-(Bicyclo [2.2.1]-5-heptene-2-ylmethyl)-2,4-dioxo-5-phenyl-2,3,4,5-tetrahydro-1H-1,5-benzodiazepin-3yl]-N'-phenylurea], the Ki (CCK-B receptor) was 1.51 nM.
